Source: US20240246968A1, “SMALL MOLECULE INHIBITORS OF KRAS G12C MUTANT” (Merck Sharp & Dohme LLC, priority 2021, published 2024)
pIC50: −log10 of the molar value. Each block holds one compound with its values, some of them ahead of it.

What was measured:
MIA PaCa-2 cells = assay: Growth inhibition activity on KRAS-G12C mutant cell line (MIA PaCa-2), CellTiter-Glo 3D; format: cell-based, human; conditions: MIA PaCa-2, 3-day culture with compound
Procedure, shortened: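 Luminescence readout (CellTiter-Glo 3D) after 3 days of compound treatment at 37 °C, 5% CO2, 0.2% final DMSO, gave % growth inhibition versus no-compound wells, from which IC50 (nM) was derived; cells had been plated in 10% FBS RPMI1640 one day before dosing.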

[1] = biological target: Gppcp-bound recombinant K-Ras4B G12C mutant protein (amino acids 1-169, C51S/C80L/C118S) (Homo sapiens, UniProt P01116, C118S/C51S/C80L/G12C); assay: KRASG12C binding assay (LC-MS, compound binding rate); conditions: test compound final concentration 0.5 μM, 25° C., 1 hour
Procedure, shortened: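 Covalent adduct formation measured by deconvoluted intact-mass LC-MS after 1 h at 25 °C with compound at 0.5 μM final and 50 nM Gppcp-loaded KRAS G12C (residues 1-169, C51S/C80L/C118S). Buffer: TBS, 0.1 mM TCEP, 0.25 mM MgCl2, 50 μM Gppcp. Binding % = one-molecule adduct/(unbound + all adducts), binned A ≥80, B 60–80, C 40–60, D 20–40, E <20.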

[2] = biological target: T1, interaction between recombinant K-Ras4B G12C mutant protein and cRAF RAS-binding domain (cRAF-RBD) (Homo sapiens, UniProt P01116, G12C); assay: Inhibitory activity on interaction between KRAS G12C and cRAF (Alpha technology); format: biochemical; conditions: GMPPNP-bound KRAS G12C incubated with compound at 25° C. for 1 hour, then cRAF-RBD; Alpha signal
T1 construct: made in house; host or cells: E. coli
Procedure, shortened: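 Alpha readout of cRAF-RBD (aa 50-132) binding to KRAS G12C (aa 1-169) after 1.5 h RT, following 1 h, 25° C compound preincubation with GMPPNP-bound protein (pH 7.5 Tris, 1 mM MgCl2, TCEP, Tween 20). IC50 fitted from titrations, with GDP-bound KRAS as 100% and DMSO as 0% inhibition.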

pIC50 (MIA PaCa-2 cells; Homo sapiens, MIA PaCa-2, 72 h): 7.11
pIC50 [2]: 7.39
SMILES: CO[C@H]1CC[C@H](NC/C=C/C(=O)Nc2c(F)cc(C(=O)c3cc(CC#N)c4c(-c5c(C)cc6c(nc(C)n6C)c5Cl)cccn34)cc2F)CC1 [Example 108, (E)-N-(4-(8-(4-chloro-1,2,6-trimethyl-1H-benzo[d]imidazol-5-yl)-1-(cyanomethyl)indolizine-3-carbonyl)-2,6-difluorophenyl)-4-(((1r,4r)-4-methoxycyclohexyl)amino)but-2-enamide]
binding rate [1]: A (A binding rate of 80% or more is rated “A”)

pIC50 (MIA PaCa-2 cells; Homo sapiens, MIA PaCa-2, 72 h): 6.70
pIC50 [2]: 7.01
SMILES: Cc1nc2cc(-c3cccn4c(C(=O)c5cc(F)c(NC(=O)/C=C/CN[C@@H]6CCC[C@@H](F)C6)c(F)c5)ccc34)c(C(F)(F)F)cc2n1C (racemic) [Example 90, (E)-N-(4-(8-(1,2-dimethyl-6-(trifluoromethyl)-1H-benzo[d]imidazol-5-yl)indolizine-3-carbonyl-2,6-difluorophenyl)-4-(((1R,3R)-3-fluorocyclohexyl)amino)but-2-enamide and (E)-N-(4-(8-(1,2-dimethyl-6-(trifluoromethyl)-1H-benzo[d]imidazol-5-yl)indolizine-3-carbonyl)-2,6-difluorophenyl)-4-(((1S,3S)-3-fluorocyclohexyl)amino)but-2-enamide]
binding rate [1]: A (A binding rate of 80% or more is rated “A”)

pIC50 (MIA PaCa-2 cells): 6.07
pIC50 [2]: 6.04
SMILES: COc1c(-c2cccn3c(C(=O)c4cc(F)c(NC(=O)/C=C/CN[C@H]5CC[C@H](OC)CC5)c(F)c4)cnc23)c(C(F)(F)F)cc2c1nc(C)n2C (single isomer, unassigned) [Example 83-2, (E)-N-(2,6-difluoro-4-(8-(4-methoxy-1,2-dimethyl-6-(trifluoromethyl)-1H-benzo[d]imidazol-5-yl)imidazo[1,2-a]pyridine-3-carbonyl)phenyl)-4-(((1r,4r)-4-methoxycyclohexyl)amino)but-2-enamide]
binding rate [1]: B (a binding rate of 60% or more and less than 80% is rated “B”)

pIC50 (MIA PaCa-2 cells; Homo sapiens, MIA PaCa-2, 72 h): 7.49
pIC50 [2]: 7.32
SMILES: CCc1cc2c(nc(C)n2C)c(Cl)c1-c1cccn2c(C(=O)c3cc(F)c(NC(=O)/C=C/CNC4CCOCC4)c(F)c3)ccc12 [Example 17, (E)-N-(4-(8(4-chloro-6-ethyl-1,2-dimethyl-1H-benzo[d]imidazol-5-yl)indolizine-3-carbonyl)-2,6-difluorophenyl)-4-((tetrahydro-2H-pyran-4-yl)amino)but-2-enamide]
binding rate [1]: A (A binding rate of 80% or more is rated “A”)

pIC50 (MIA PaCa-2 cells; Homo sapiens, MIA PaCa-2, 72 h): 7.35
pIC50 [2]: 7.12
SMILES: COc1cc2c(cc1-c1cccn3c(C(=O)c4cc(F)c(NC(=O)/C=C/CNC(C)(C)C)c(F)c4)ccc13)nc(C)n2C [Example 5, (E)-4-(tert-butylamino)-N-(2,6-difluoro-4-(8-(6-methoxy-1,2-dimethyl-1H-benzo[d]imidazol-5-yl)indolizine-3-carbonyl)phenyl)but-2-enamide]
binding rate [1]: A (A binding rate of 80% or more is rated “A”)

pIC50 (MIA PaCa-2 cells; Homo sapiens, MIA PaCa-2, 72 h): 6.85
pIC50 [2]: 7.12
SMILES: COc1nc2c(cc1-c1cccn3c(C(=O)c4cc(F)c(NC(=O)/C=C/CN[C@H]5CC[C@H](OC)CC5)c(F)c4)ccc13)nc(C)n2C [Example 33, (E)-N-(2,6-difluoro-4-(8-(5-methoxy-2,3-dimethyl-3H-imidazo[4,5-b]pyridin-6-yl)indolizine-3-carbonyl)phenyl)-4-(((1r,4r)-4-methoxycyclohexyl)amino)but-2-enamide]
binding rate [1]: A (A binding rate of 80% or more is rated “A”)

pIC50 (MIA PaCa-2 cells): 6.11
pIC50 [2]: 5.92
SMILES: COc1c(-c2cccn3c(C(=O)c4cc(F)c(NC(=O)/C=C/CNC5(C)CC5)c(F)c4)c(C)nc23)c(C(F)(F)F)cc2c1nc(C)n2C (single isomer, unassigned) [Example 109-2, (E)-N-(2,6-difluoro-4(8-(4-methoxy-1,2-dimethyl-6-(trifluoromethyl)-1H-benzo[d]imidazol-5-yl)-2-methylimidazo[1,2-a]pyridine-3-carbonyl)phenyl)-4-((1-methylcyclopropyl)amino)but-2-enamide]
binding rate [1]: D (a binding rate of 20% or more and less than 40% is rated “D”)

pIC50 (MIA PaCa-2 cells; Homo sapiens, MIA PaCa-2, 72 h): 6.80
pIC50 [2]: 7.16
SMILES: CC(C)(C)NC/C=C/C(=O)Nc1c(F)cc(C(=O)c2cnc3c(-c4cc5nc6n(c5cc4C(F)(F)F)CCC6)cccn23)cc1F [Example 7, (E)-4-(tert-butylamino)-N-(2,6-difluoro-4-(8-(7-(trifluoromethyl)-2,3-dihydro-1H-benzo[d]pyrrolo[1,2-a]imidazol-6-yl)imidazo[1,2-a]pyridine-3-carbonyl)phenyl)but-2-enamide]
binding rate [1]: B (a binding rate of 60% or more and less than 80% is rated “B”)

More lines, now with the values behind:

SMILES: COc1cc2c(ncn2C)c(Cl)c1-c1cccn2c(C(=O)c3cc(F)c(NC(=O)/C=C/CNC(C)(C)C)c(F)c3)ccc12 (single isomer, unassigned) [Example 14-1, (E)-4-(tert-butylamino)-N-(4-(8-(4-chloro-6-methoxy-1-methyl-1H-benzo[d]imidazol-5-yl)indolizine-3-carbonyl)-2,6-difluorophenyl)but-2-enamide]
pIC50 (MIA PaCa-2 cells; Homo sapiens, MIA PaCa-2, 72 h): 7.55
binding rate [1]: A (A binding rate of 80% or more is rated “A”)
pIC50 [2]: 7.24

SMILES: COc1c(-c2cccn3c(C(=O)c4cc(F)c(NC(=O)/C=C/CN[C@H]5CC[C@H](OC)CC5)c(F)c4)ccc23)c(C(F)(F)F)cc2c1nc(C)n2C (single isomer, unassigned) [Example 60-1, (E)-N-(2,6-difluoro-4-(8-(4-methoxy-1,2-dimethyl-6-(trifluoromethyl)-1H-benzo[d]imidazol-5-yl)indolizine-3-carbonyl)phenyl)-4-(((1r,4r)-4-methoxycyclohexyl)amino)but-2-enamide]
pIC50 (MIA PaCa-2 cells): 5.80
binding rate [1]: A (A binding rate of 80% or more is rated “A”)
pIC50 [2]: 5.80

SMILES: CO[C@H]1CC[C@H](NC/C=C/C(=O)Nc2c(F)cc(C(=O)c3ccc4c(-c5c(C(F)(F)F)cc6c(nc(C)n6C)c5Cl)cccn34)cc2F)CC1 (single isomer, unassigned) [Example 32-2, (E)-N-(4-(8-(4-chloro-1,2-dimethyl-6-(trifluoromethyl)-1H-benzo[d]imidazol-5-yl)indolizine-3-carbonyl)-2,6-difluorophenyl)-4-(((1r,4r)-4-methoxycyclohexyl)amino)but-2-enamide]
pIC50 (MIA PaCa-2 cells): 6.00
binding rate [1]: A (A binding rate of 80% or more is rated “A”)
pIC50 [2]: 6.38

SMILES: CO[C@H](C)c1nc2c(Cl)c(-c3cccn4c(C(=O)c5cc(F)c(NC(=O)/C=C/CNC(C)(C)C)c(F)c5)ccc34)c(C)cc2n1C (single isomer, unassigned) [Example 50]
pIC50 (MIA PaCa-2 cells): 6.66
binding rate [1]: A (A binding rate of 80% or more is rated “A”)
pIC50 [2]: 6.60

SMILES: COc1c(-c2cccn3c(C(=O)c4cc(F)c(NC(=O)/C=C/CNC5(C)CC5)c(F)c4)cnc23)c(C(F)(F)F)cc2c1nc(C)n2C (single isomer, unassigned) [Example 105-2, (E)-N-(2,6-difluoro-4-(8-(4-methoxy-1,2-dimethyl-6-(trifluoromethyl)-1H-benzo[d]imidazol-5-yl)imidazo[1,2-a]pyridine-3-carbonyl)phenyl)-4-((1-methylcyclopropyl)amino)but-2-enamide]
pIC50 (MIA PaCa-2 cells): 6.03
binding rate [1]: C (a binding rate of 40% or more and less than 60% is rated “C”)
pIC50 [2]: 5.84

SMILES: Cc1nc2c(Cl)c(-c3cccn4c(C(=O)c5cc(F)c(NC(=O)/C=C/CNC6CCOCC6)c(F)c5)ccc34)c(C(F)(F)F)cc2n1C (single isomer, unassigned) [Example 57-2, (E)-N-(4-(8-(4-chloro-1,2-dimethyl-6-(trifluoromethyl)-1H-benzo[d]imidazol-5-yl)indolizine-3-carbonyl)-2,6-difluorophenyl)-4-((tetrahydro-2H-pyran-4-yl)amino)but-2-enamide]
pIC50 (MIA PaCa-2 cells): 5.96
binding rate [1]: A (A binding rate of 80% or more is rated “A”)
pIC50 [2]: 6.10

SMILES: Cc1nc2cc(-c3cccn4c(C(=O)c5cc(F)c(NC(=O)/C=C/CNC6CCN(C)C(=O)C6)c(F)c5)ccc34)c(C(F)(F)F)cc2n1C (stereo not drawn) [Example 72, (E)-N-(4-(8-(1,2-dimethyl-6-(trifluoromethyl)-1H-benzo[d]imidazol-5-yl)indolizine-3-carbonyl)-2,6-difluorophenyl)-4-((1-methyl-2-oxopiperidin-4-yl)amino)but-2-enamide]
pIC50 (MIA PaCa-2 cells; Homo sapiens, MIA PaCa-2, 72 h): 7.00
binding rate [1]: A (A binding rate of 80% or more is rated “A”)
pIC50 [2]: 7.05

SMILES: Cc1cc2c(ncn2C)c(Cl)c1-c1cccn2c(C(=O)c3cc(F)c(NC(=O)/C=C/CNC4CCOCC4)c(F)c3)ccc12 (single isomer, unassigned) [Example 27-1, (E)-N-(4-(8-(4-chloro-1,6-dimethyl-1H-benzo[d]imidazol-5-yl)indolizine-3-carbonyl)-2,6-difluorophenyl)-4-((tetrahydro-2H-pyran-4-yl)amino)but-2-enamide]
pIC50 (MIA PaCa-2 cells): 6.92
binding rate [1]: A (A binding rate of 80% or more is rated “A”)
pIC50 [2]: 7.60
